The values that follow come from PMC3906421 (Journal of medicinal chemistry, 2013).

In this assay the target is HIV-1 reverse transcriptase (RT35A, wild type) (Human immunodeficiency virus type 1 group M subtype B, UniProt P03366). The experiment in a line: JDAM dual activity monitor RT activity assay. The assay is classed as biochemical. Particulars: for ligand efficiency: LE = -RTln(IC50)/NHA.

For `CCOC(=O)c1cnn2ccccc12` [compound 1, ethyl pyrazolo[1,5-a]pyridine-3-carboxylate], the ligand efficiency stood at 0.34 kcal/mol●NHA.
Regarding `CN(CC(=O)N1CCCc2ccccc21)Cc1nc(=O)c2ccccc2[nH]1` [compound 8, 2-(((2-(3,4-dihydroquinolin-1(2H)-yl)-2-oxoethyl)(methyl)amino)methyl)quinazolin-4(1H)-one], the ligand efficiency was 0.19 kcal/mol●NHA.
Consider `NCc1ccc(OC(F)(F)F)cc1` [compound 2, 4-(trifluoromethoxy)benzylamine], for which, where the note is “at 1 mM, JDAM assay”, the “inhibition (in words)” value is reported as “no detectable inhibition”.
`Oc1ccc(OC(F)(F)F)cc1` [compound 3, 4-(trifluoromethoxy)phenol] displayed a ligand efficiency of 0.37 kcal/mol●NHA.
